Source: article PMC12655172, “Borylated 5-Membered Ring Iminosugars: Synthesis and Biological Evaluation for Glycosidase Inhibition and Anticancer Properties for Application in Boron Neutron Capture Therapy (BNCT)—Part 2” (Pharmaceuticals, 2025)

Key:
[1] = system: T1, amyloglucosidase (A. niger); test: Glycosidase inhibition (Table 2 panel); assay type: biochemical
T1 construct: purchased Sigma-Aldrich
In short: (§1)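 Each enzyme was run with the matching para-nitrophenyl glycoside […] at its optimum pH, […]. Reactions were stopped with Na2CO3 […], and released para-nitrophenol was read at 400 nm.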

[2] = molecular target: T2, α-D-glucosidase (yeast) (Saccharomyces cerevisiae, UniProt P53341); test: Glycosidase inhibition (Table 2 panel); assay type: biochemical; settings: read-out: inhibition % α-D-Glucosidase Yeast
T2 construct: purchased Sigma-Aldrich
In short: as §1

[3] = system: T3, β-D-glucuronidase (E. coli); test: Glycosidase inhibition (Table 2 panel); assay type: biochemical
T3 construct: purchased Sigma-Aldrich
In short: as §1

[4] = system: β-D-mannosidase (snail); test: Glycosidase inhibition (Table 2 panel); assay type: biochemical
In short: (§2)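 Chromogenic hydrolysis assay: each glycosidase acted on the appropriate para-nitrophenyl glycoside […] under its optimal pH. Addition of Na2CO3 […] ended the reaction before p-nitrophenol was measured at 400 nm.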

[5] = system: T4, α-D-galactosidase (coffee beans); test: Glycosidase inhibition (Table 2 panel); assay type: biochemical
T4 construct: purchased Sigma-Aldrich; host or cells: coffee beans
In short: as §2

[6] = system: β-D-glucosidase (almond); test: Glycosidase inhibition (Table 2 panel); assay type: biochemical
In short: as §2

[7] = system: T5, α-D-mannosidase (Jack bean); test: Glycosidase inhibition (Table 2 panel); assay type: biochemical
T5 construct: purchased Sigma-Aldrich; host or cells: Jack bean
In short: as §2

[8] = molecular target: α-D-glucosidase (rice) (Oryza sativa subsp. japonica, UniProt Q653V7); test: Glycosidase inhibition (Table 2 panel); assay type: biochemical
[9] = system: A2780 (ovarian carcinoma); test: Cancer screening, MTT growth inhibition; assay type: cell-based; settings: Homo sapiens
In short: (§3)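 MTT read-out; […]. Cells in DMEM + 10% FBS, 37 °C/5% CO2, plated 2500–4000 per well, dosed on day 0 (24 h post-plating). Mean ± SEM, n = 3 separate occasions.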

[10] = system: MIA-Pa-Ca2 (pancreatic carcinoma); test: Cancer screening, MTT growth inhibition; assay type: cell-based; settings: Homo sapiens
In short: as §3

[11] = system: H460 (lung carcinoma); test: Cancer screening, MTT growth inhibition; assay type: cell-based; settings: Homo sapiens
In short: as §3

[12] = system: HT29 (colorectal carcinoma); test: Cancer screening, MTT growth inhibition; assay type: cell-based; settings: Homo sapiens
In short: as §3

[13] = system: A431 (skin carcinoma); test: Cancer screening, MTT growth inhibition; assay type: cell-based; settings: Homo sapiens
In short: as §3

T2 sequence (P53341 whole entry): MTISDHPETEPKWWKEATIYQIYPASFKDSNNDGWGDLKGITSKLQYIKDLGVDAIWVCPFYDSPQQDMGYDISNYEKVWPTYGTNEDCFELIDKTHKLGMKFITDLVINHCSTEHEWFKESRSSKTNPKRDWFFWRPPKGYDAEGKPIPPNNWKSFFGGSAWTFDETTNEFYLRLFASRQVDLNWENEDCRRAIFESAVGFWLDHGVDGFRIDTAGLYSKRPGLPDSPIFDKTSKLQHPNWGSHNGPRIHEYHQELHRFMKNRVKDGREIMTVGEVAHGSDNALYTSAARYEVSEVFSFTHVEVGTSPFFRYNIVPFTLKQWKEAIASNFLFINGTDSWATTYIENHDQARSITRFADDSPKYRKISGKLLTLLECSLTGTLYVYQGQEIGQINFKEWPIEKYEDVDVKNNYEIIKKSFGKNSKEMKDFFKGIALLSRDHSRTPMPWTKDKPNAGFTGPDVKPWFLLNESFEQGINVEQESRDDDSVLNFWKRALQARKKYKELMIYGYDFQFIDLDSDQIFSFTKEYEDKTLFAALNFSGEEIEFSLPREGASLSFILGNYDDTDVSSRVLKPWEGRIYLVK
Sequence of α-D-glucosidase (rice) (Q653V7 34-885): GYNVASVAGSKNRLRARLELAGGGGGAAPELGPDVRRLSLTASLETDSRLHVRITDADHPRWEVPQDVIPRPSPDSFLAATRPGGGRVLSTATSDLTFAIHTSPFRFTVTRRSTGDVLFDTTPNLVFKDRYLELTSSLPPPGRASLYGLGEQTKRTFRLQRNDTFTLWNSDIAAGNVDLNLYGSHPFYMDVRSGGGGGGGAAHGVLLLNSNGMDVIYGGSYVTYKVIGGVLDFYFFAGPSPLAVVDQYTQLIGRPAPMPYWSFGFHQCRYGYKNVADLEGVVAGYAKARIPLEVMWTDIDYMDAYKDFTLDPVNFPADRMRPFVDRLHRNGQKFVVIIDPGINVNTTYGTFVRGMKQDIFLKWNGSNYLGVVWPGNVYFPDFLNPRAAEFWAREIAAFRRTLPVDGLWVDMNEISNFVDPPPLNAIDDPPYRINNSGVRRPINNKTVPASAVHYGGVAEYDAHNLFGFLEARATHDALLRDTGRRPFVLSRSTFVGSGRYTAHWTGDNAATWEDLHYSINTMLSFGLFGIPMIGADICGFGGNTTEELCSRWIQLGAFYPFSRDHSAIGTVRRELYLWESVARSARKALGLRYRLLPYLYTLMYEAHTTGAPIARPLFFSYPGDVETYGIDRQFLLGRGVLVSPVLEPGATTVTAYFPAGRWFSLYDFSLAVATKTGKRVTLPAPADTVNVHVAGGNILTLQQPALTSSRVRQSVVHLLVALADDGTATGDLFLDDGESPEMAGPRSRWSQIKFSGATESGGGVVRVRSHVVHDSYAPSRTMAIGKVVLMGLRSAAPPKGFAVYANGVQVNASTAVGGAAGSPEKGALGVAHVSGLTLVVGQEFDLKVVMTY

Compound: OB(O)c1cccc(CN2C[C@@H](O)[C@H]3OC(O)[C@H](O)[C@H]32)c1 (stereo partly drawn) [meta 3, N-(3-Methylphenylboronic acid)-3,6-dideoxy-3,6-imino-D-gulofuranose]
- inhibition % Amyloglucosidase A. niger ([1]; at 100 μM): ^cNI ^d(24.6%)
- inhibition % Amyloglucosidase A. niger ([1]; at 1000 μM): ^aNI ^b(1.5%)
- inhibition at 100 µM [2]: 1.4%
- inhibition at 1000 µM [2]: 37%
- inhibition % β-D-Glucuronidase E. coli ([3]; at 100 μM): ^cNI ^d(16.2%)
- inhibition % β-D-Glucuronidase E. coli ([3]; at 1000 μM): ^aNI ^b(36.9%)
- inhibition % β-D-Mannosidase Snail ([4]; at 100 μM): ^cNI ^d(0%)
- inhibition % β-D-Mannosidase Snail ([4]; at 1000 μM): ^aNI ^b(0%)
- inhibition % α-D-Galactosidase Coffee Beans ([5]; at 100 μM): ^cNI ^d(0%)
- inhibition % α-D-Galactosidase Coffee Beans ([5]; at 1000 μM): ^aNI ^b(0.7%)
- inhibition % β-D-Glucosidase Almond ([6]; at 100 μM): ^cNI ^d(24.8%)
- inhibition % β-D-Glucosidase Almond ([6]; at 1000 μM): ^aNI ^b(45.8%)
- inhibition % α-D-Mannosidase Jack Bean ([7]; at 100 μM): ^cNI ^d(0%)
- inhibition % α-D-Mannosidase Jack Bean ([7]; at 1000 μM): ^aNI ^b(0%)
- inhibition at 100 µM ([8]; at 100 μM): 0%
- inhibition at 1000 µM ([8]; at 1000 μM): 5.9%
- inhibition at 25 µM ([9]; A2780, 25 µM of drug, 72 h, read-out: DOSE SCREEN percentage (%) cell growth inhibition A2780 Ovarian): 18 ± 1%
- GI50 ([9]; A2780, 72 h, read-out: DOSE RESPONSE GI50 A2780 Ovarian): > 50 µM
- inhibition at 25 µM ([10]; MIA PaCa-2, 25 µM of drug, 72 h, read-out: DOSE SCREEN percentage (%) cell growth inhibition MIA-Pa-Ca2 Pancreatic): 17 ± 4%
- GI50 ([10]; MIA PaCa-2, 72 h, read-out: DOSE RESPONSE GI50 MIA-Pa-Ca2 Pancreatic): > 50 µM
- inhibition at 25 µM ([11]; NCI-H460, 25 µM of drug, 72 h, read-out: DOSE SCREEN percentage (%) cell growth inhibition H460 Lung): 2 ± 2%
- GI50 ([11]; NCI-H460, 72 h, read-out: DOSE RESPONSE GI50 H460 Lung): > 50 µM
- inhibition at 25 µM ([12]; HT-29, 25 µM of drug, 72 h, read-out: DOSE SCREEN percentage (%) cell growth inhibition HT29 Colon): < 0%
- GI50 ([12]; HT-29, 72 h, read-out: DOSE RESPONSE GI50 HT29 Colon): > 50 µM
- inhibition at 25 µM ([13]; A-431, 25 µM of drug, 72 h, read-out: DOSE SCREEN percentage (%) cell growth inhibition A431 Skin): 3%
- GI50 ([13]; A-431, 72 h, read-out: DOSE RESPONSE GI50 A431 Skin): > 50 µM
